Holding throughout (assay type): in vivo
Data set [1] is described as follows: Iron status and haematological parameters of mice fed iron diets. Conditions: C57BL/6 male mice, diet 50 mg/kg iron for two weeks. The protocol:
(§1) Thirty C57BL/6 male mice at four weeks of age were subjected to an iron deficient diet (based on the AIN-93G rodent diet, ˜1 mg kg of iron). All mice were bred in the same environment (QIMR Berghofer Animal Facility) to minimise the inherent variability in the microbiome between individual mice.
(§2) After faecal collection at six weeks of age, mice were switched from an iron deficient diet to a diet containing 50 mg/kg of iron such as ferrous sulfate (iron (II) sulfate) or Sucrosomial® iron (ten mice per group).
Faecal samples were then collected from each mouse at eight weeks of age (i.e. two weeks with diets containing iron), the mice sacrificed and the tissues collected for analysis. Liver and serum samples were collected from each animal after euthanasia and stored at −80° C. Haematological parameters were evaluated immediately after euthanasia using a “Coulter Ac-T diff Hematology Analyzer” (Beckman Coulter, Gladesville, NSW, Australia). […] For the analysis of iron and haematological parameters, the statistical differences between the groups were calculated using the unidirectional ANOVA followed by the Tukey post-hoc test for the groups with equal variance or by the Games-Howell post-hoc test for those with unequal variance. Significant differences in variance were identified using the Levene test. DNA was extracted from the faecal samples and the microbial profile (QIMR Berghofer Medical Research Institute) was determined.
• ID: control group, maintained on iron deficient diet (about 1 mg/kg iron). • FS: group fed with diet containing 50 mg/kg of iron in the form of ferrous sulfate (FS abbreviation for ferrous sulfate)—Fe(II). • SI: group fed with diet containing 50 mg/kg of iron in the form of Sucrosomial® iron (SI abbreviation for sucrosomial iron)—Fe(III).
After being sacrificed at the age of eight weeks, iron levels in the liver and in the serum, as well as the haematological parameters of mice of the three groups under analysis (ID, FS and SI) were examined.

Data set [2] has as its system Bacteroidota. Description: Faecal microbiome changes at phylum level: Bacteroidota. To be noted: faecal samples, mice, two weeks on diet 50 mg/kg iron vs baseline (FIG. 5). As for the experimental part:
as §1
(§3) At six weeks of age (i.e. two weeks with an iron deficient diet), faeces were collected for microbiome analysis. This was the control sample for each mouse and it represents the basic microbiome of that particular animal when the lumen is iron deficient. […]
(§4) Faecal samples were then collected from each mouse at eight weeks of age (i.e. two weeks with diets containing iron), the mice sacrificed and the tissues collected for analysis. […] Haematological parameters were evaluated immediately after euthanasia using a “Coulter Ac-T diff Hematology Analyzer” (Beckman Coulter, Gladesville, NSW, Australia). Serum iron parameters, analysed using the Iron/TIBC Reagent Kit (Pointe Scientific, Canton, MI), and iron levels in tissues were determined as described above [Frazer, D. M., et al. Cell Mol Gastroenterol Hepatol 3, 410-421 (2017)]. […] DNA was extracted from the faecal samples and the microbial profile (QIMR Berghofer Medical Research Institute) was determined. […]

The nature of data set [3]: Body weight of mice on iron diets. Conditions: C57BL/6 male mice, diet 50 mg/kg iron for two weeks; comparison of ID, FS and SI groups (FIG. 1A). The protocol:
as §1, §2
The remaining ten mice were a control group that remained on the deficient diet.
Faecal samples were then collected from each mouse at eight weeks of age (i.e. two weeks with diets containing iron), the mice sacrificed and the tissues collected for analysis. Liver and serum samples were collected from each animal after euthanasia and stored at −80° C. Haematological parameters were evaluated immediately after euthanasia using a “Coulter Ac-T diff Hematology Analyzer” (Beckman Coulter, Gladesville, NSW, Australia). Serum iron parameters, analysed using the Iron/TIBC Reagent Kit (Pointe Scientific, Canton, MI), and iron levels in tissues were determined as described above [Frazer, D. M., et al. Cell Mol Gastroenterol Hepatol 3, 410-421 (2017)]. […] DNA was extracted from the faecal samples and the microbial profile (QIMR Berghofer Medical Research Institute) was determined. […]

Data set [4] concerns gut microbiome of mice. As to the kind of experiment: Faecal microbiome diversity (beta and alpha diversity) in mice. Conditions: faecal samples, two weeks on diet 50 mg/kg iron. As for the experimental part:
as §1, §3
Faecal samples were then collected from each mouse at eight weeks of age (i.e. two weeks with diets containing iron), the mice sacrificed and the tissues collected for analysis. […] Haematological parameters were evaluated immediately after euthanasia using a “Coulter Ac-T diff Hematology Analyzer” (Beckman Coulter, Gladesville, NSW, Australia). Serum iron parameters, analysed using the Iron/TIBC Reagent Kit (Pointe Scientific, Canton, MI), and iron levels in tissues were determined as described above [Frazer, D. M., et al. Cell Mol Gastroenterol Hepatol 3, 410-421 (2017)]. […] DNA was extracted from the faecal samples and the microbial profile (QIMR Berghofer Medical Research Institute) was determined.

For data set [5], the system named is Lachnospiraceae spp, Rikenellaceae RC9, Faecalibaculum, Colidextribacter, Oscillibacter, Parasutterella, Lactobacillus. As to the kind of experiment: Faecal microbiome changes at Amplicon Single Variant (ASV)/genus level. To be noted: faecal samples, mice, two weeks on diet 50 mg/kg iron vs baseline (FIG. 6G). The protocol:
as §1, §3, §4

Turning to ferrous sulfate, the “iron concentration in the liver” value in data set [1] (Sucrosomial iron vs ferrous sulfate (FIG. 1B)) is “no significant differences”. Further, the serum iron levels entry in data set [1] (Sucrosomial iron vs ferrous sulfate (FIG. 1C)) was “no significant differences”. Besides, the transferrin saturation result in data set [1] (Sucrosomial iron vs ferrous sulfate (FIG. 1D)) was “no significant differences”. Also, in data set [1] (Sucrosomial iron vs ferrous sulfate (FIG. 2A)), the “red blood cell count” value is on record as “no significant differences”. The haemoglobin result in data set [1] (Sucrosomial iron vs ferrous sulfate (FIG. 2B)) is “no significant differences”. Besides, in data set [1] (Sucrosomial iron vs ferrous sulfate (FIG. 2C)), the haematocrit entry is “no significant differences”. In addition, the mean corpuscular volume entry in data set [1] (Sucrosomial iron vs ferrous sulfate (FIG. 2D)) is “no significant differences”. In data set [2], the “abundance of phylum Bacteroidota, change vs baseline” value is recorded as “significantly reduced”. Moreover, the body weight result in data set [3] is on record as “no significant differences”. For the same substance, in data set [4] (unpaired comparison of groups (FIG. 4A)), the “Shannon index (alpha diversity) per group” value is listed as “lower”. For the same substance, in data set [4] (vs iron deficient diet (FIG. 3)), the “beta diversity (overall microbial composition, PCoA)” value is recorded as “able to be distinguished from samples taken from mice on iron-deficient diets”. In addition, in data set [5], the “Lactobacillus at the genus level, change vs baseline” value is recorded as “no similar decrease”.

For the origin of these results see patent US20240139235A1, “IRON(III) FORMULATIONS FOR THE TREATMENT OF GASTROINTESTINAL INFLAMMATION” (PHARMANUTRA S.P.A., priority 2021, published 2024).
